Results published in patent publication US11766407B2, “Polymerized whey protein encapsulated antioxidant compound and a process for preparation of same” (FoodScience Corporation, priority 2020, dated 2023).

Legend:
[1] = in vivo; settings: male, ICR, mouse, po
Procedure: ICR mice, male, SPF, 3 weeks, weighing from 18 to 22 g were provided by Beijing HFK Bioscience Co., Ltd (Beijing, China).
All mice were housed in plastic lab animal cages in a ventilated room. The room was maintained at 20±2° C. and 60±10% relative humidity with a 12 h light/dark cycle. Water and commercial laboratory complete food for mice were available ad libitum. They were acclimated to this environment for 7 days before treatment. All animal experiments were approved by the Animal Welfare and Research Ethics Committee at Jilin University (Approval ID: SY201905018).
Blood collection. Before blood collection, 30 μL heparin solution was added to 1.5 mL centrifugal tubes and vortexed. The blood samples (about 0.5 mL) was collected by removing one eye of the mice. The blood was centrifuged at 6000 rpm at room temperature for 2 min. The upper plasma was transferred to a new centrifugal tube.
Pharmacokinetic parameters were calculated using a mouse model.

[2] = Physicochemical characterization of PWPC-GSH (particle size, zeta potential, rheology, TEM); settings: GSH alone

Structure (SMILES): N[C@@H](CCC(=O)N[C@@H](CS)C(=O)NCC(=O)O)C(=O)O [GSH, Glutathione]
- AUC [1]: 19200 ng·h/mL
- Cmax [1]: 7370 ng/mL
- Tmax [1]: 2 h
- particle size [2]: 287.83±6.18 nm
